The values below come from US20260285875A1, “INHIBITORS OF PARG” (858 Therapeutics, Inc., priority 2023, published 2026).

Broadly, the IC50 is the concentration at which inhibition is half-maximal. The low end stands for greater potency in that assay, the high end for weaker potency in that assay.

For this experiment, the target named is T1, cellular PARG (Homo sapiens, UniProt Q86W56).
T1 construct: endogenous in cells; host or cells: HeLa
Description: Nuclear PAR accumulation assay (immunofluorescence high-content imaging, MMS-treated HeLa cells). Format: cell-based. The settings on record: 1 hour compound then MMS 50 μg/mL for an additional hour. Here is the method:
HeLa cells were plated at 15,000 cells/well in a 96-well plate the day before compound treatment and then treated with varying concentrations of test compound and incubated for 1 hour at 37° C.+5% CO2. Following test compound treatment, methylmethane sulfonate (MMS) was added to a final concentration of 50 μg/mL and the cells were incubated for an additional hour. Following treatment, the cells were fixed with ice cold 95% methanol and the plates sealed and placed at -20° C. for 15 minutes. The cells were then washed once with phosphate buffered saline (PBS) and permeabilized with 0.10% Triton-X 100 for 20 minutes at room temperature. […] The cells were then washed three times with PBS before incubation with a fluorescently conjugated goat anti-mouse antibody (Invitrogen A32723) diluted 1:500 in 5% FBS+0.1% Tween-20+PBS for 1 hour at room temperature. The cells were again washed three times with PBS and the nuclei labeled by incubating with 1 μg/mL DAPI (4′,6-diamidino-2-phenylindole). Nuclear PAR accumulation was evaluated using high-content fluorescence microscopy. Four fields for each well were acquired at 20× magnification resulting in at least 1,000 cells analyzed per well. […] Both the average intensity per nucleus and percent PAR positive cells were quantified. […] Concentration-response-curves and IC50 values were generated using four parameter logistic curve fit software.
Representative data for exemplary compounds is presented in Table 32, Table 33 and Table 34.

Molecules are shown by their SMILES.

T1 sequence (Q86W56 whole entry): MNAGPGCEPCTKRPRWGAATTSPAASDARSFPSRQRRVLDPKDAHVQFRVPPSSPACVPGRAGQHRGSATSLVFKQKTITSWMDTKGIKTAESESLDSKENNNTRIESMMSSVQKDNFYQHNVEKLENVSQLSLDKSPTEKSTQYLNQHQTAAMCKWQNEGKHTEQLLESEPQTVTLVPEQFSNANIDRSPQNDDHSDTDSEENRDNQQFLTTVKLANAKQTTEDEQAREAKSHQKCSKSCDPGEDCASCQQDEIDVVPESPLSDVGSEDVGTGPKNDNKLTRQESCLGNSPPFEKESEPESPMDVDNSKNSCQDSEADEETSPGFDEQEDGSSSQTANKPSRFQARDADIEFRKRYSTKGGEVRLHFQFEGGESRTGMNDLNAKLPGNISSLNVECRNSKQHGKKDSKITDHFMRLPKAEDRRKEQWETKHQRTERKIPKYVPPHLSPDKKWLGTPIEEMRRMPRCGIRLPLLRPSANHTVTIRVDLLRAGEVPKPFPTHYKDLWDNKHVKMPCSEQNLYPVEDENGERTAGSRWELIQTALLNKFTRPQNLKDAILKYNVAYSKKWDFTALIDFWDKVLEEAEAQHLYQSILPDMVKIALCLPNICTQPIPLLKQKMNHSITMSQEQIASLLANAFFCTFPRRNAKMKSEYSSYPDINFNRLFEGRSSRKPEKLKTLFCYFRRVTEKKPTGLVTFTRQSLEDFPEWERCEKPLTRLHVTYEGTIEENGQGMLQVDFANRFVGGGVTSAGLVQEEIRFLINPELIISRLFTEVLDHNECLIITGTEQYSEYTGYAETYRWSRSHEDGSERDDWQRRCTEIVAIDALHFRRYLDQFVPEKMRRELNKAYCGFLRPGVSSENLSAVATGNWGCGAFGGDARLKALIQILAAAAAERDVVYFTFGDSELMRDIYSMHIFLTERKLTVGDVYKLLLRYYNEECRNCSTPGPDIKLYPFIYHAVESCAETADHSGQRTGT

Molecule `C[C@@H]1CN=C2N(Cc3cnn(C)c3)C(=O)c3cc(S(=O)(=O)NC4(C)CC4)cc(C4CCN(C)CC4)c3N21` [Example 22, (R)-1-methyl-4-((1-methyl-1H-pyrazol-4-yl)methyl)-N-(1-methylcyclopropyl)-9-(1-methylpiperidin-4-yl)-5-oxo-1,2,4,5-tetrahydroimidazo[1,2-a]quinazoline-7-sulfonamide] gave an IC50 of 100 to 1000 nM.

On to `C[C@@H]1CN=C2N(Cc3cn(C)nc3C(F)(F)F)C(=O)c3cc(S(=O)(=O)NC4(C)CC4)cc(Br)c3N21` [Example 23, (R)-9-bromo-1-methyl-4-((1-methyl-3-(trifluoromethyl)-1H-pyrazol-4-yl)methyl)-N-(1-methylcyclopropyl)-5-oxo-1,2,4,5-tetrahydroimidazo[1,2-a]quinazoline-7-sulfonamide], for which the IC50 is less than 100 nM. Take `C[C@@H]1CN=C2N(Cc3cn(C)nc3C(F)F)C(=O)c3cc(S(=O)(=O)NC4(C)CC4)ccc3N21` [Example 24, (R)-4-((3-(difluoromethyl)-1-methyl-1H-pyrazol-4-yl)methyl)-1-methyl-N-(1-methylcyclopropyl)-5-oxo-1,2,4,5-tetrahydroimidazo[1,2-a]quinazoline-7-sulfonamide]: the IC50 is less than 100 nM. Molecule `Cc1cc(F)ccc1-c1cc(S(=O)(=O)NC2(C)CC2)cc2c1N1CC(C)(C)N=C1N(Cc1cnn(C)c1)C2=O` [Example 25, 9-(4-fluoro-2-methylphenyl)-2,2-dimethyl-4-((1-methyl-1H-pyrazol-4-yl)methyl)-N-(1-methylcyclopropyl)-5-oxo-1,2,4,5-tetrahydroimidazo[1,2-a]quinazoline-7-sulfonamide] gave an IC50 of less than 100 nM.

In turn, `Cn1cc(CN2C(=O)c3cc(S(=O)(=O)NC4(C)CC4)cc(C4=CCCC4)c3N3CCN=C23)cn1` [Example 26, 9-(cyclopent-1-en-1-yl)-4-((1-methyl-1H-pyrazol-4-yl)methyl)-N-(1-methylcyclopropyl)-5-oxo-1,2,4,5-tetrahydroimidazo[1,2-a]quinazoline-7-sulfonamide] gave a half-inhibitory concentration (IC50) of 100 to 1000 nM. On to `C[C@@H]1CN=C2N(Cc3cnn(C)c3)C(=O)c3cc(S(=O)(=O)NC4(C)CC4)cc(N4CCC(O)CC4)c3N21` [Example 27, (R)-9-(4-hydroxypiperidin-1-yl)-1-methyl-4-((1-methyl-1H-pyrazol-4-yl)methyl)-N-(1-methylcyclopropyl)-5-oxo-1,2,4,5-tetrahydroimidazo[1,2-a]quinazoline-7-sulfonamide], for which the IC50 was 100 to 1000 nM. In turn, `Cn1cc(CN2C(=O)c3cc(S(=O)(=O)NC4(C)CC4)ccc3N3C2=NC[C@H]3COc2ccccc2)cn1` [Example 28, (S)-4-((1-methyl-1H-pyrazol-4-yl)methyl)-N-(1-methylcyclopropyl)-5-oxo-1-(phenoxymethyl)-1,2,4,5-tetrahydroimidazo[1,2-a]quinazoline-7-sulfonamide] returned an IC50 of less than 100 nM. As for `Cn1cc(CN2C(=O)c3cc(S(=O)(=O)NC4(C)CC4)ccc3N3C2=NC[C@H]3COc2ccc(F)cc2)cn1` [Example 29, (S)-1-((4-fluorophenoxy)methyl)-4-((1-methyl-1H-pyrazol-4-yl)methyl)-N-(1-methylcyclopropyl)-5-oxo-1,2,4,5-tetrahydroimidazo[1,2-a]quinazoline-7-sulfonamide], the half-inhibitory concentration (IC50) is less than 100 nM.

For the molecule `Cn1cc(CN2C(=O)c3cc(S(=O)(=O)NC4(C)CC4)ccc3N3C2=NC[C@H]3COc2cccc(F)c2)cn1` [Example 30, (S)-1-((3-fluorophenoxy)methyl)-4-((1-methyl-1H-pyrazol-4-yl)methyl)-N-(1-methylcyclopropyl)-5-oxo-1,2,4,5-tetrahydroimidazo[1,2-a]quinazoline-7-sulfonamide], the IC50 is less than 100 nM. In turn, `CN(C)CC#C[C@@H]1CN=C2N(Cc3cnn(C)c3)C(=O)c3cc(S(=O)(=O)NC4(C)CC4)ccc3N21` [Example 31, (R)-1-(3-(dimethylamino)prop-1-yn-1-yl)-4-((1-methyl-1H-pyrazol-4-yl)methyl)-N-(1-methylcyclopropyl)-5-oxo-1,2,4,5-tetrahydroimidazo[1,2-a]quinazoline-7-sulfonamide] registered an IC50 of less than 100 nM.

On to `Cc1cc(F)ccc1-c1cc(S(=O)(=O)NC2(C)CC2)cc2c1N1C(=NC[C@H]1C)N(Cc1cnn(C)c1)C2=O` [Example 32, (R)-9-(4-fluoro-2-methylphenyl)-1-methyl-4-((1-methyl-1H-pyrazol-4-yl)methyl)-N-(1-methylcyclopropyl)-5-oxo-1,2,4,5-tetrahydroimidazo[1,2-a]quinazoline-7-sulfonamide], for which the IC50 is less than 100 nM. Take `C[C@@H]1CN=C2N(C)C(=O)c3cc(S(=O)(=O)NC4(C)CC4)cc(N4CCN(C(=O)N(C)C)CC4)c3N21` [Example 33, (R)-4-(1,4-dimethyl-7-(N-(1-methylcyclopropyl)sulfamoyl)-5-oxo-1,2,4,5-tetrahydroimidazo[1,2-a]quinazolin-9-yl)-N,N-dimethylpiperazine-1-carboxamide]: the IC50 was less than 100 nM. In turn, `CN1C(=O)c2cc(S(=O)(=O)NC3(C)CC3)cc(Br)c2N2C1=NC[C@H]2C#CC1CC1` [Example 34, (R)-9-bromo-1-(cyclopropylethynyl)-4-methyl-N-(1-methylcyclopropyl)-5-oxo-1,2,4,5-tetrahydroimidazo[1,2-a]quinazoline-7-sulfonamide] returned an IC50 of less than 100 nM. Regarding `Cn1cc(C#C[C@@H]2CN=C3N(Cc4cnn(C)c4)C(=O)c4cc(S(=O)(=O)NC5(C)CC5)ccc4N32)cn1` [Example 35, (R)-1-((1-methyl-1H-pyrazol-4-yl)ethynyl)-4-((1-methyl-1H-pyrazol-4-yl)methyl)-N-(1-methylcyclopropyl)-5-oxo-1,2,4,5-tetrahydroimidazo[1,2-a]quinazoline-7-sulfonamide], the IC50 was less than 100 nM. `Cn1cc(CN2C(=O)c3cc(S(=O)(=O)NC4(C)CC4)ccc3N3C2=NC[C@H]3C#Cc2ccccc2)cn1` [Example 36, (R)-4-((1-methyl-1H-pyrazol-4-yl)methyl)-N-(1-methylcyclopropyl)-5-oxo-1-(phenylethynyl)-1,2,4,5-tetrahydroimidazo[1,2-a]quinazoline-7-sulfonamide] came in with an IC50 of less than 100 nM. Next, `C[C@@H]1CN=C2N(Cc3cnn(C)c3)C(=O)c3cc(S(=O)(=O)NC4(C)CC4)cc(N4CCC(C(=O)N(C)C)CC4)c3N21` [Example 37, (R)-N,N-dimethyl-1-(1-methyl-4-((1-methyl-1H-pyrazol-4-yl)methyl)-7-(N-(1-methylcyclopropyl)sulfamoyl)-5-oxo-1,2,4,5-tetrahydroimidazo[1,2-a]quinazolin-9-yl)piperidine-4-carboxamide]: 100 to 1000 nM; `C#C[C@@H]1CN=C2N(C)C(=O)c3cc(S(=O)(=O)NC4(C)CC4)cc(Br)c3N21` [Example 38, (R)-9-bromo-1-ethynyl-4-methyl-N-(1-methylcyclopropyl)-5-oxo-1,2,4,5-tetrahydroimidazo[1,2-a]quinazoline-7-sulfonamide]: less than 100 nM. `Cn1cc(CN2C(=O)c3cc(S(=O)(=O)NC4(C)CC4)ccc3N3C2=NC[C@H]3CC(F)(F)F)cn1` [Example 39, (R)-4-((1-methyl-1H-pyrazol-4-yl)methyl)-N-(1-methylcyclopropyl)-5-oxo-1-(2,2,2-trifluoroethyl)-1,2,4,5-tetrahydroimidazo[1,2-a]quinazoline-7-sulfonamide] yielded an IC50 of less than 100 nM.

The molecule `Cn1cc(CN2C(=O)c3cc(S(=O)(=O)NC4(C)CC4)ccc3N3C2=NC[C@H]3/C=C/c2ccccc2)cn1` [Example 40, (R,E)-4-((1-methyl-1H-pyrazol-4-yl)methyl)-N-(1-methylcyclopropyl)-5-oxo-1-styryl-1,2,4,5-tetrahydroimidazo[1,2-a]quinazoline-7-sulfonamide] came in with an IC50 of less than 100 nM. In the case of `C[C@@H]1CN=C2N(Cc3cnn(C)c3)C(=O)c3cc(S(=O)(=O)NC4(C)CC4)sc3N21` [Example 41, (R)-8-methyl-5-((1-methyl-1H-pyrazol-4-yl)methyl)-N-(1-methylcyclopropyl)-4-oxo-4,5,7,8-tetrahydroimidazo[1,2-a]thieno[3,2-e]pyrimidine-2-sulfonamide] it was 100 to 1000 nM. Next, `CC#C[C@@H]1CN=C2N(C)C(=O)c3cc(S(=O)(=O)NC4(C)CC4)cc(Br)c3N21` [Example 42, (R)-9-bromo-4-methyl-N-(1-methylcyclopropyl)-5-oxo-1-(prop-1-yn-1-yl)-1,2,4,5-tetrahydroimidazo[1,2-a]quinazoline-7-sulfonamide]: less than 100 nM; `[2H]C([2H])(c1cnn(C)c1)N1C(=O)c2cc(S(=O)(=O)NC3(C)CC3)ccc2N2C1=NC[C@H]2C#C` [Example 43, (R)-1-ethynyl-4-((1-methyl-1H-pyrazol-4-yl)methyl-d2)-N-(1-methylcyclopropyl)-5-oxo-1,2,4,5-tetrahydroimidazo[1,2-a]quinazoline-7-sulfonamide]: less than 100 nM; `Cn1cc(CN2C(=O)c3cc(S(=O)(=O)NC4(C)CC4)ccc3N3C2=NC[C@H]3C2CCOCC2)cn1` [Example 44, (R)-4-((1-methyl-1H-pyrazol-4-yl)methyl)-N-(1-methylcyclopropyl)-5-oxo-1-(tetrahydro-2H-pyran-4-yl)-1,2,4,5-tetrahydroimidazo[1,2-a]quinazoline-7-sulfonamide]: 100 to 1000 nM.
